According to patent publication US20230390326A1, “COMPOSITION COMPRISING CATIONIC SUBSTANCE, AND USE FOR SAME” (SUNGKWANG MEDICAL FOUNDATION, priority 2020, published 2023):
Peptide text beside a SMILES is read from it. * marks the point of attachment. Cbz = O=C(OCc1ccccc1)*

How the values were obtained:
perforin protein = assay: Western blot of perforin protein in cultured NK cells; type: cell-based; settings: NK cells treated with MG132 to prevent intracellular protein degradation
Procedure: Protein extracts from NK cells were separated using 10% SDS-PAGE, and transferred to a polyvinylidene difluoride amersham Biosciences membrane for 90 minutes at the voltage of 120 V. The membrane was blocked in 3% bovine serum albumin (BSA)-containing tris-buffered saline-Tween [TBST; 0.2 M NaCl, 0.1% Tween-20, and 10 mM Tris (pH 7.4)] for 1 hour. The blocked membrane was incubated with a rabbit polyclonal anti-Perforin antibody (1:1000; ab180773, abcam) or a rabbit monoclonal anti-GAPDH antibody (1:1000; […], Cell signaling). After incubation, the membrane was incubated with anti-rabbit polyclonal IgG (1:5000; #7074, Cell Signaling Technology) for 1 hour at room temperature. After each step, the membrane was washed several times using TBST and bound antibodies were detected using an enhanced chemiluminescence detection system (Thermo Fisher Scientific Biosciences) according to manufacturer instructions In order to determine whether […] increases the amount of intracellular perforin, the NK cells of Example 1 were treated with 5 μg/ml of polyethylenimine, and cultured over time (0 hour, 3 hour, 6 hour, 12 hours, 24 hours, or 48 hours), and then Western blotting was performed on the cultured NK cells to identify the amount of granzyme B and perforin protein. […]

[1] = tested on: triple negative breast cancer cell line MDA_MB231; assay: In vitro assay of inducing activity of natural killer cells (CFSE-7AAD assay, apoptosis of target cells); type: cell-based; settings: NK cells cultured 48 hours with the substance, then mixed with MDA_MB231 at E:T 10:1 for 4 hours; target only 1.32, NK cells only 21.36
Procedure: Green fluorescence-labeled MDA MB 231 cells and NK cells were put into a 1.5 ml eppendorf tube in respective ratios, mixed, and reacted in a 37° C., CO2 5% incubator for 4 hours. After the reaction was over, the cells were stained with 7AAD (Invitrogen A1310) for 20 minutes and fixed. Through flow cytometry, the mixed cells were divided into two cell populations according to the presence or absence of green fluorescence, and the percentage of dead cells was measured and compared by group to analyze the activity.
In order to confirm the ability of […] to induce the activity of NK cells according to molecular weight and type, the NK cells of Example 1 were cultured for 48 hours after mixing with various molecular weights and types of polyethylenimine or with a control group.
Next, the cultured NK cells were washed, and re-suspended in a fresh culture medium. Thereafter, the NK cells and triple negative breast cancer cell line MDA_MB231 were mixed in an effector (E):target (T) ratio of 10:1 and cultured for 4 hours. Finally, the degree of apoptosis of the target cells in the cultured cells was quantitatively analyzed using the CFSE-7AAD assay.

Molecule | amount of perforin protein (perforin protein) | degree of apoptosis of target cells [1]
CC(C)C[C@@H](C=O)NC(=O)[C@H](CC(C)C)NC(=O)[C@H](CC(C)C)NC(=O)OCc1ccccc1 [MG132] (Cbz-Leu-Leu-Leu-aldehyde) | increased | 
Protamine |  | 25.31
